Results as given in ChEMBL document CHEMBL3272160, “Synthesis and some pharmacological properties of [1-(L-2-hydroxy-3-mercaptopropanoic acid), 4-threonine]oxytocin (hydroxy [4-thr]oxytocin), a peptide with strikingly high oxytocic potency and of [1-(L-2-hydroxy-3-mercaptopropanoic acid)]oxytocin (hydroxy-oxytocin)” (J Med Chem, 1976).
*1 amine or outer side, *2 acyl side, *3 side chain or, on linkers, in order; H or OH if unused. Where a SMILES comes first, the peptide text is derived from it. Bridges are numbered along the chain shown (N, C = ends). [ ]: non-standard residue; d: D form. Abu(4-yl) = O=C([C@H](CC[*:3])N[*:1])[*:2]; X1 = O=C([C@@H](O)CS[*:2])[*:1]; X2 = O=C(CCC[*:2])[*:1]; Mpa = O=C(O)CCS

Key:
[1] = molecular target: T1, Oxytocin receptor (Rattus norvegicus) (UniProt P70536); experiment: Activity at oxytocin receptor in rat uterus in presence of 0.5 mM Mg2+; format: tissue-based
T1 sequence (whole entry): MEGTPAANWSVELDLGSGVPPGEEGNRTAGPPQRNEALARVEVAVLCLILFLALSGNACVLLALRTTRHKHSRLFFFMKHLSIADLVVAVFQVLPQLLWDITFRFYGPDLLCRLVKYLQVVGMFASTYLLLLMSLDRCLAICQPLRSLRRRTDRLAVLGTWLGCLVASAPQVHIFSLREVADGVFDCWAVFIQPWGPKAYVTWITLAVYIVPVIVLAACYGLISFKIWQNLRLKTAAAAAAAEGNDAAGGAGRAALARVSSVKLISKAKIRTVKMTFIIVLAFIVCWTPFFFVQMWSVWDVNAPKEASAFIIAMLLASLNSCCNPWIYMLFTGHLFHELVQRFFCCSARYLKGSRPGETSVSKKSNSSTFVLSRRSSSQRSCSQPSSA

Rattus norvegicus [2] = species on record: Rattus norvegicus; experiment: Vasopressor activity in rat; format: ADME, organism-based; conditions: in vivo
[3] = Ratio of activity at oxytocin receptor in rat uterus to vasopressor activity in rat
[4] = molecular target: T1, Oxytocin receptor (Rattus norvegicus); experiment: Activity at oxytocin receptor in rat uterus; format: tissue-based
Rattus norvegicus [5] = species on record: Rattus norvegicus; experiment: Antidiuretic activity in rat; format: ADME, organism-based, Urine; conditions: in vivo
[6] = Ratio of activity at oxytocin receptor in rat uterus to antidiuretic activity in rat; design: species or system Urine
[7] = molecular target: T1, Oxytocin receptor (Rattus norvegicus); experiment: Activity at oxytocin receptor in rat mammary strip
[8] = molecular target: T1, Oxytocin receptor (Rattus norvegicus); experiment: Activity at oxytocin receptor in rat uterus relative to oxytocin; format: tissue-based
Rattus norvegicus [9] = species on record: Rattus norvegicus; experiment: Oxytocic activity in rat assessed as milk ejection; format: functional
Oryctolagus cuniculus = species on record: Oryctolagus cuniculus; experiment: Oxytocic activity in rabbit assessed as milk ejection; format: functional

| SMILES | Activity [1] [U/mg] | Activity (Rattus norvegicus [2]) [U/mg] | Activity [4] [U/mg] | Activity (Rattus norvegicus [5]) [U/mg] | Activity [7] [U/mg] | Ratio [8] | Ratio [3] | Ratio [6] | Activity (Rattus norvegicus [9]) [U/mg] | Activity (Oryctolagus cuniculus) [U/mg] |
| --- | --- | --- | --- | --- | --- | --- | --- | --- | --- | --- |
| CC[C@H](C)[C@@H]1NC(=O)[C@H](Cc2ccc(O)cc2)NC(=O)CCCSC[C@@H](C(=O)N2CCC[C@H]2C(=O)N[C@@H](CC(C)C)C(=O)NCC(N)=O)NC(=O)[C@H](CC(N)=O)NC(=O)[C@H](CCC(N)=O)NC1=O (YIQNCPLG-NH2; linker N-5 via X2) | 921 | 17.5 | 1900 | 24.1 | 581 | 4 | 108 | 79 |  |  |
| CC[C@H](C)[C@@H]1NC(=O)[C@H](Cc2ccc(O)cc2)NC(=O)[C@@H](N)CSSC[C@@H](C(=O)N2CCC[C@H]2C(=O)N[C@@H](CC(C)C)C(=O)NCC(N)=O)NC(=O)[C@H](CC(N)=O)NC(=O)[C@H]([C@@H](C)O)NC1=O (H-CYITNCPLG-NH2; disulfide 1-6) | 719 | 0.43 | 923 | 1.8 |  | > 4 | 2146 | 513 |  | 543 |
| CC[C@H](C)[C@@H]1NC(=O)[C@H](Cc2ccc(O)cc2)NC(=O)CCSSC[C@@H](C(=O)N2CCC[C@H]2C(=O)N[C@@H](CC(C)C)C(=O)NCC(N)=O)NC(=O)[C@H](CC(N)=O)NC(=O)[C@H]([C@@H](C)O)NC1=O ([Mpa]YITNCPLG-NH2; disulfide 1-6) | 242 | < 0.1 | 149 | 0.9 |  |  |  | 165 |  | 385 |
| CC[C@H](C)[C@@H]1NC(=O)[C@H](Cc2ccc(O)cc2)NC(=O)[C@@H](N)CSSC[C@@H](C(=O)N2CCC[C@H]2C(=O)N[C@@H](CC(C)C)C(=O)NCC(N)=O)NC(=O)[C@H](CC(N)=O)NC(=O)[C@H](CCC(N)=O)NC1=O [OXYTOCIN] | 486 |  | 520 | 4 |  | > 7 |  |  |  | 474 |
| CC[C@H](C)[C@@H]1NC(=O)[C@H](Cc2ccc(O)cc2)NC(=O)CCSSC[C@@H](C(=O)N2CCC[C@H]2C(=O)N[C@@H](CC(C)C)C(=O)NCC(N)=O)NC(=O)[C@H](CC(N)=O)NC(=O)[C@H](CCC(N)=O)NC1=O [DEMOXYTOCIN] |  | 1.44 |  | 19 |  |  | 558 | 42 |  | 541 |

The next lines start with results.

| Activity [1] [U/mg] | Activity (Rattus norvegicus [2]) [U/mg] | Activity [4] [U/mg] | Activity (Rattus norvegicus [5]) [U/mg] | Activity [7] [U/mg] | Ratio [8] | SMILES | Ratio [3] | Ratio [6] | Activity (Rattus norvegicus [9]) [U/mg] | Activity (Oryctolagus cuniculus) [U/mg] |
| --- | --- | --- | --- | --- | --- | --- | --- | --- | --- | --- |
| 760 |  |  |  |  |  | CC[C@H](C)[C@@H]1NC(=O)[C@H](Cc2ccc(O)cc2)NC(=O)CCSSC[C@H](C(=O)N2CCC[C@H]2C(=O)N[C@@H](CC(C)C)C(=O)NCC(N)=O)NC(=O)[C@H](CC(N)=O)NC(=O)[C@H](CCC(N)=O)NC1=O |  |  |  |  |
| 937 | 4.92 | 4180 | 5.3 | 378 | 8 | CC[C@H](C)[C@@H]1NC(=O)[C@H](Cc2ccc(O)cc2)NC(=O)[C@@H](O)CSSC[C@@H](C(=O)N2CCC[C@H]2C(=O)N[C@@H](CC(C)C)C(=O)NCC(N)=O)NC(=O)[C@H](CC(N)=O)NC(=O)[C@H]([C@@H](C)O)NC1=O (YITNCPLG-NH2; linker N-5 via X1) | 849 | 788 | 808 |  |
| 868 | 14.7 | 1280 | 16.6 | 363 | 2.45 | CC[C@H](C)[C@@H]1NC(=O)[C@H](Cc2ccc(O)cc2)NC(=O)[C@@H](O)CSSC[C@@H](C(=O)N2CCC[C@H]2C(=O)N[C@@H](CC(C)C)C(=O)NCC(N)=O)NC(=O)[C@H](CC(N)=O)NC(=O)[C@H](CCC(N)=O)NC1=O (YIQNCPLG-NH2; linker N-5 via X1) | 50 | 77 | 694 |  |
|  | 2.95 | 734 | 9.3 | 177 |  | CC[C@H](C)[C@@H]1NC(=O)[C@H](Cc2ccc(O)cc2)NC(=O)[C@@H](N)CCSC[C@@H](C(=O)N2CCC[C@H]2C(=O)N[C@@H](CC(C)C)C(=O)NCC(N)=O)NC(=O)[C@H](CC(N)=O)NC(=O)[C@H](CCC(N)=O)NC1=O (H-[Abu(4-yl)]YIQNCPLG-NH2; thioether 1-6) | 249 | 79 |  |  |
